Assay results published in US11878975B2, “Substituted indole compounds useful as TLR inhibitors” (BRISTOL-MYERS SQUIBB COMPANY, priority 2017, dated 2024).

How the values were obtained:
Type in all cases: cell-based
[1] = molecular target: T1, human TLR9 (Homo sapiens, UniProt Q9NR96); experiment: TLR9 inhibition reporter assay (HEK-Blue cells, SEAP reporter, ODN2006 stimulation); settings: HEK-Blue cells overexpressing human TLR9, SEAP reporter, ODN2006 5 nM
T1 construct: host or cells: HEK-Blue cells
T1 sequence (Q9NR96 26-1032): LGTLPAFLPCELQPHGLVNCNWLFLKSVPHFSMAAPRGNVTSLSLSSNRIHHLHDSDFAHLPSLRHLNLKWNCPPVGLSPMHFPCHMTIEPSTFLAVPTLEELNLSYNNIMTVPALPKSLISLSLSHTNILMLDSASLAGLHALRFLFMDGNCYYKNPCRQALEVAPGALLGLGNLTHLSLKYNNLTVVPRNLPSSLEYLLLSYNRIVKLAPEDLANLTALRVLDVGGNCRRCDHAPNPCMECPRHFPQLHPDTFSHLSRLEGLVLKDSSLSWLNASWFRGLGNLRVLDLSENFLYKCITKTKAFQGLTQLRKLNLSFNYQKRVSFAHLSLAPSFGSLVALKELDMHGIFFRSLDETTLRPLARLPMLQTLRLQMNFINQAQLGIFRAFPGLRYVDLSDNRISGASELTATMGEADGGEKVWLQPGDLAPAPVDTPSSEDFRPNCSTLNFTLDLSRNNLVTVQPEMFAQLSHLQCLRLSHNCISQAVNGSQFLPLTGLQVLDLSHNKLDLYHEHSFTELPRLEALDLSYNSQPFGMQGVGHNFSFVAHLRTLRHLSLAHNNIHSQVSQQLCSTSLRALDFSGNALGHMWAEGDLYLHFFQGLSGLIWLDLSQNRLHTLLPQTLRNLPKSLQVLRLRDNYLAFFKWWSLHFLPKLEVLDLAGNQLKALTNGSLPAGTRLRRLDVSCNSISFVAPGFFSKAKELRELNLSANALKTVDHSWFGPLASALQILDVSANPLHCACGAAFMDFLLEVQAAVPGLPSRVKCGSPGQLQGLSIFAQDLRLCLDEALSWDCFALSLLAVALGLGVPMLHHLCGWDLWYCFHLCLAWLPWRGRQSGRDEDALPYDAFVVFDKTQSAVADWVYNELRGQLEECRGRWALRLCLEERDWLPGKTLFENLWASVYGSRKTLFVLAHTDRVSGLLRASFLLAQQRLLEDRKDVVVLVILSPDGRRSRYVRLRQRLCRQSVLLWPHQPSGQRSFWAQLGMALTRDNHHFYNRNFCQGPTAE
Summary of the method: (§1)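 Percent inhibition is derived from SEAP signal, scaled between agonist-plus-DMSO wells and wells given a known inhibitor. Test compounds (0.05 nM–50 μM) are pre-incubated 30 min at room temperature before agonist addition (TLR7: 7.5 μM gardiquimod; TLR8: 15.9 μM R848; TLR9: 5 nM ODN2006) and 22 h culture at 37 °C.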

[2] = molecular target: T2, human TLR7 (Homo sapiens, UniProt Q9NYK1); experiment: TLR7 inhibition reporter assay (HEK-Blue cells, SEAP reporter, gardiquimod stimulation); settings: HEK-Blue cells overexpressing human TLR7, SEAP reporter, gardiquimod 7.5 μM
T2 construct: host or cells: HEK-Blue cells
T2 sequence (Q9NYK1 27-1049): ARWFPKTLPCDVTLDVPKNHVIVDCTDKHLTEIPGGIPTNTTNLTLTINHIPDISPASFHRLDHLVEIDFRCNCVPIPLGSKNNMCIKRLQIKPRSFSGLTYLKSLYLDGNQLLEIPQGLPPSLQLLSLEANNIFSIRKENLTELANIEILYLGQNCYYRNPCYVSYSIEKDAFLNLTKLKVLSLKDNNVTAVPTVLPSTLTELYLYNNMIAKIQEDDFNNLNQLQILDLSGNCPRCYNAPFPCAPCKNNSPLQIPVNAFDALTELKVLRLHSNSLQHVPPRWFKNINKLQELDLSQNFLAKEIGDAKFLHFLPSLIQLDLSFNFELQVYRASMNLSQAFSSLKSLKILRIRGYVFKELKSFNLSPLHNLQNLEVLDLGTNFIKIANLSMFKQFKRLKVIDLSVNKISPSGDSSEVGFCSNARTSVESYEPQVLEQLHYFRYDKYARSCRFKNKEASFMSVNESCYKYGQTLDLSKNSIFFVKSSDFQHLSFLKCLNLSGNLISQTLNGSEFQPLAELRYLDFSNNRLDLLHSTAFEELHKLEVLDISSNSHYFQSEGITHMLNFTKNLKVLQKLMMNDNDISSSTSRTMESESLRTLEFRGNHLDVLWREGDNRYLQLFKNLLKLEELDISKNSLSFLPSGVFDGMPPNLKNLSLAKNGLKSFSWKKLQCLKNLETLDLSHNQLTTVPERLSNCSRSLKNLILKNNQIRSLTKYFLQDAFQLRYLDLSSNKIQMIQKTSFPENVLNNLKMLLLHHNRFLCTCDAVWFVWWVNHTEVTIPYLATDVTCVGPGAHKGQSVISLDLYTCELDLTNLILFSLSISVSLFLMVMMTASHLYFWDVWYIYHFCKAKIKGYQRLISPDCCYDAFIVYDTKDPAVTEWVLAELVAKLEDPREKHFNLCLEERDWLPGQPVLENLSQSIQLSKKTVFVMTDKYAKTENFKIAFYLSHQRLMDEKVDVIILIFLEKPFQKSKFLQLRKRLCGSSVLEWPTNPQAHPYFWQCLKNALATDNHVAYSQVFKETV
Summary of the method: as §1

[3] = molecular target: T3, human TLR8 (Homo sapiens, UniProt Q9NR97); experiment: TLR8 inhibition reporter assay (HEK-Blue cells, SEAP reporter, R848 stimulation); settings: HEK-Blue cells overexpressing human TLR8, SEAP reporter, R848 15.9 μM
T3 construct: host or cells: HEK-Blue cells
T3 sequence (Q9NR97 27-1041): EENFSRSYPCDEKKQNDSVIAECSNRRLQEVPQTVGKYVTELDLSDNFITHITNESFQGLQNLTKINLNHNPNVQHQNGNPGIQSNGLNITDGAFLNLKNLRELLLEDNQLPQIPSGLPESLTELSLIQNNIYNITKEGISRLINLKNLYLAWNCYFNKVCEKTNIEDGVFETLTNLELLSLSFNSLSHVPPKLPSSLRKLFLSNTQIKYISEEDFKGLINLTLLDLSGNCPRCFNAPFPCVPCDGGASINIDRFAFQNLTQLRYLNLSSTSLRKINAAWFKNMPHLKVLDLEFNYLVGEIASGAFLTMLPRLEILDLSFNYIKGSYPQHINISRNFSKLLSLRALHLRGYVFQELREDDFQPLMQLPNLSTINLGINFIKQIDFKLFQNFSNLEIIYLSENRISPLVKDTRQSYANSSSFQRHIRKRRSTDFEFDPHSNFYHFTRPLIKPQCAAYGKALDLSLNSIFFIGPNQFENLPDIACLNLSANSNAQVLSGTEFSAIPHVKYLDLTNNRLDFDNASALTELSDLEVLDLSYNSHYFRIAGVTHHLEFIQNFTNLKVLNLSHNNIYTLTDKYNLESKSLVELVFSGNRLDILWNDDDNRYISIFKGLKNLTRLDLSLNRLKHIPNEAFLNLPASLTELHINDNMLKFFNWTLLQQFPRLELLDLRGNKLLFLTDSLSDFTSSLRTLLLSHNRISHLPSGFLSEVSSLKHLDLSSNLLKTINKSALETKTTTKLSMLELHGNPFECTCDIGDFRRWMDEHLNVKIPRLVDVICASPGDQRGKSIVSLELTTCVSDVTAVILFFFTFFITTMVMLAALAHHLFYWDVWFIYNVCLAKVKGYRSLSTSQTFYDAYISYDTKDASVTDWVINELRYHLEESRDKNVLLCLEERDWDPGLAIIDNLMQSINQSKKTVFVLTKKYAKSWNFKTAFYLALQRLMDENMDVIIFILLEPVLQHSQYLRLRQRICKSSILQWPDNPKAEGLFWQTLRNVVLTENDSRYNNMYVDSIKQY
Summary of the method: as §1

Row | Compound | IC50 [1] | IC50 [2] | IC50 [3]
1 | Cc1cc(-c2[nH]c3ccc(CCN4CCCC(F)C4)cc3c2C(C)C)cn(C)c1=O (stereo not drawn) [Example 406] | 8.81 µM | 0.014 µM | 0.0032 µM
2 | Cc1cc(-c2[nH]c3ccc(CCN4CCC(F)CC4)cc3c2C(C)C)cn(C)c1=O [Example 407] | 13.6 µM | 0.009 µM | 0.0014 µM
3 | Cc1cc(-c2[nH]c3ccc(CCN4CC[C@H](F)C4)cc3c2C(C)C)cn(C)c1=O [Example 408] | 13 µM | 0.015 µM | 0.0023 µM
4 | Cc1cc(-c2[nH]c3ccc(CCN4CCCCC4)cc3c2C(C)C)cn(C)c1=O [Example 409] | 15.6 µM | 0.023 µM | 0.003 µM
5 | Cc1cc(-c2[nH]c3ccc(CCN4CC[C@@H](F)C4)cc3c2C(C)C)cn(C)c1=O [Example 410] | 15.6 µM | 0.013 µM | 0.00072 µM
6 | COc1cc(-c2[nH]c3ccc(CCN4CCOCC4)cc3c2C(C)C)cn2ncnc12 [Example 411] | 8.96 µM | 0.007 µM | 0.0079 µM
7 | Cc1c(-c2[nH]c3ccc(CC4CN(CCS(C)(=O)=O)C4)cc3c2C(C)C)cn(C)c(=O)c1C [Example 418] | 9.21 µM | 0.077 µM | 0.007 µM
8 | Cc1cc(-c2[nH]c3ccc(CC4CCCN4CC(=O)N(C)C)cc3c2C(C)C)cn2ncnc12 (stereo not drawn) [Example 426] | 11.2 µM | 0.002 µM | 0.013 µM
9 | Cc1c(-c2[nH]c3ccc(CC4CCCN4C4COC4)cc3c2C(C)C)cn2cnnc2c1C (stereo not drawn) [Example 427] | 17.6 µM | 0.012 µM | 0.019 µM
10 | Cc1c(-c2[nH]c3ccc(CC4CCCN4CCS(C)(=O)=O)cc3c2C(C)C)cn2cnnc2c1C (stereo not drawn) [Example 428] | 16.2 µM | 0.049 µM | 0.015 µM
11 | Cc1c(-c2[nH]c3ccc(CC4CCCN4C4CCOCC4)cc3c2C(C)C)cn2cnnc2c1C (stereo not drawn) [Example 429] | 6.78 µM | 0.011 µM | 0.017 µM
12 | COc1cc(-c2[nH]c3ccc(CC4CN(CC#N)C4)cc3c2C(C)C)cn2ncnc12 [Example 432] | 5.35 µM | 0.008 µM | 0.049 µM

Now from value to compound:

Row | IC50 [1] | IC50 [2] | IC50 [3] | Compound
13 | 5.27 µM | 0.005 µM | 0.0029 µM | COc1cc(-c2[nH]c3ccc(CCN4CCCCC4)cc3c2C(C)C)cn2ncnc12 [Example 412]
14 | 2.75 µM | 0.002 µM | 0.0009 µM | COc1cc(-c2[nH]c3ccc(CCN4CCN(C)CC4)cc3c2C(C)C)cn2ncnc12 [Example 413]
15 | 4.51 µM | 0.003 µM | 0.004 µM | COc1cc(-c2[nH]c3ccc(CCN4CCCC4)cc3c2C(C)C)cn2ncnc12 [Example 414]
16 | 5.02 µM | 0.04 µM | 0.038 µM | Cc1c(-c2[nH]c3ccc(CC4CN(C(=O)CN(C)C)C4)cc3c2C(C)C)cn(C)c(=O)c1C [Example 415]
17 | 4.09 µM | 0.115 µM | 0.0064 µM | Cc1c(-c2[nH]c3ccc(CC4CN(C5CCOCC5)C4)cc3c2C(C)C)cn(C)c(=O)c1C [Example 416]
18 | 2.11 µM | 0.076 µM | 0.036 µM | Cc1c(-c2[nH]c3ccc(CC4CNC4)cc3c2C(C)C)cn(C)c(=O)c1C [Example 417]
19 | 3.76 µM | 0.418 µM | 0.027 µM | CCc1c(-c2ccc(OC)c(OC)c2)[nH]c2ccc(CC3CCCN3)cc12 (stereo not drawn) [Example 419]
20 | 1.06 µM | 0.306 µM | 0.038 µM | CCc1c(-c2ccnc(C)c2)[nH]c2ccc(CC3CCCN3)cc12 (stereo not drawn) [Example 420]
21 | 1.1 µM | 0.014 µM | 0.004 µM | CC(C)c1c(-c2ccnc3[nH]ncc23)[nH]c2ccc(CCC3CCNCC3)cc12 [Example 421]
22 | 0.457 µM | 0.013 µM | 0.0021 µM | CC(C)c1c(-c2ccnc3[nH]ncc23)[nH]c2ccc(/C=C/C3CCNCC3)cc12 [Example 422]
23 | 2.08 µM | 0.034 µM | 0.016 µM | CC(C)c1c(-c2ccnc3[nH]ncc23)[nH]c2ccc(C(C)C3CCNCC3)cc12 (stereo not drawn) [Example 423]
24 | 2.1 µM | 0.024 µM | 0.0029 µM | CC(C)c1c(-c2ccnc3[nH]ncc23)[nH]c2ccc(CC3CCNCC3)cc12 [Example 424]
25 | 2.49 µM | 0.00072 µM | 0.0014 µM | Cc1cc(-c2[nH]c3ccc(CC4CCCN4C4CCOCC4)cc3c2C(C)C)cn2ncnc12 (stereo not drawn) [Example 425]
26 | 0.86 µM | 0.012 µM | 0.041 µM | COc1cc(-c2[nH]c3ccc(CC4CNC4)cc3c2C(C)C)cn2ncnc12 [Example 430]
27 | 2.77 µM | 0.002 µM | 0.0035 µM | COc1cc(-c2[nH]c3ccc(CC4CN(CCS(C)(=O)=O)C4)cc3c2C(C)C)cn2ncnc12 [Example 431]
28 | 2.19 µM | 0.002 µM | 0.003 µM | COc1cc(-c2[nH]c3ccc(CC4CN(C(C)C)C4)cc3c2C(C)C)cn2ncnc12 [Example 433]
